Experimental data reported in patent publication US20220008537A1, “COMPOUNDS FOR PHOTODYNAMIC THERAPY AND RELATED USES” (GEORGIA STATE UNIVERSITY RESEARCH FOUNDATION, INC., priority 2018, published 2022).

Legend:
pUC19 plasmid DNA = experiment: DNA photocleavage inhibition induced by chemical additives; assay type: biochemical; details: 20 μM dye, 38 μM bp pUC19, 830 nm 300 mW LED laser, pH 7.0
Method: Individual DNA cleavage reactions containing 5 μM to 50 μM concentrations of cyanine dye, 38 μM bp of pUC19 plasmid, and 10 mM of sodium phosphate pH 7.0 were prepared in a total volume of 40 μL. In order maintain reaction temperature at 10° C., 22° C., or 37° C., the samples were placed in a thermometer-fitted metal block that was either heated, kept at room temperature, or immersed in an ice bath. While monitoring temperature with the thermometer, the samples were either kept in the dark or were irradiated at time interval ranging from 5 min to 120 min using a light emitting diode (LED) laser (LaserLands) with a peak emission wavelength of either 532 nm (100 mW), 808 nm (300 mW), or 830 nm (300 mW). At the end of the irradiation time interval, a total of 3 μL of electrophoresis loading buffer containing 15.0% (w/v) ficoll and 0.025% (w/v) bromophenol blue) was added to each reaction and 20 μL of the resulting solution was added to one of the wells of 1.5% agarose gel stained with ethidium bromide (0.5 μg/mL, final concentration). Completely loaded gels were then electrophoresed for 60 min at 105 V in a Bio-Rad Laboratories gel box using 1×tris-acetate-EDTA (TAE) containing 0.5 μg/mL ethidium bromide as the running buffer. Electrophoresed gels were visualized at 302 nm with a VWR Scientific LM-20E transilluminator and then photographed with a UVP PhotoDoc-ItTM Imaging System. For quantitating the gels, ImageQuant version 5.2 software was employed. The DNA photocleavage yields were then calculated using the formula: Percent Photocleavage=[(Linear+Nicked DNA)/(Linear+Nicked+Supercoiled DNA)]×100. In an argon-purged glove box, 40 μL photocleavage reactions containing 10 mM sodium phosphate buffer pH 7.0, 20 μM of cyanine dye, and 38 μM bp of pUC19 plasmid were prepared from solutions bubbled with argon and then irradiated at 830 nm for 30 min The procedure was repeated using aerated solutions in a glove box purged with air. A second set of reactions containing 10 mM of sodium phosphate buffer pH 7.0, 38 μM bp pUC19 plasmid DNA and 20 μM of dye were prepared in the presence and absence of either 100 mM of the singlet oxygen scavenger sodium azide, 100 mM of the hydroxyl radical scavenger sodium benzoate, or 84% D2O (v/v). […] After the irradiation, the above DNA reactions were electrophoresed on 1.5% non-denaturing agarose gels, visualized, and quantitated as just described. The percent change in DNA photocleavage was then calculated using the formula, where additive stands for either argon, sodium azide, sodium benzoate, or D2O: Percent Change in Cleavage=[(% Total of Linear and Nicked […] additive-% Total of Linear and Nicked DNAwithout additive)/(% Total of Linear and Nicked DNAwithout additive)]×100. […]

SMILES	melting point	Photocleavage inhibition (%) (pUC19 plasmid DNA; Reagent Argon (targets 1O2 & •OH))	Photocleavage inhibition (%) (pUC19 plasmid DNA; Reagent D2O 84% (v/v) (target 1O2))	Photocleavage inhibition (%) (pUC19 plasmid DNA; Reagent Sodium azide 100 mM (targets 1O2 > •OH))	Photocleavage inhibition (%) (pUC19 plasmid DNA; Reagent Sodium benzoate 100 mM (target •OH))
CN1C=C/C(=C/C=C/C=C/c2cc[n+](C)c3ccccc23)c2ccccc21.[I-] [Dye 4, 1-methyl-4-((1E,3E)-5-((Z)-1-methylquinolin-4(1H)-ylidene)penta-1,3-dien-1-yl)quinolin-1-ium iodide]	239 °C (dec.)				
CN1C=C/C(=C/C=C(Cl)/C=C/c2cc[n+](C)c3ccccc23)c2ccccc21.[I-] [Dye 5, 4-((1E,3Z)-3-chloro-5-((Z)-1-methylquinolin-4(1H)-ylidene)penta-1,3-dien-1-yl)-1-methylquinolin-1-ium iodide]	> 260 °C	67 ± 3	6 ± 1	26 ± 3	31 ± 2
